Measurements taken from US12083139B2, “Use of IGF-2 receptor agonist ligands for treatment of Angelman Syndrome and autism” (New York University, priority 2018, dated 2024).
Where two headings read alike, the source gives them in different places.

Legend:
Ube3a−/+ (AS) mice [1] = assay: Hindlimb clasping in AS mice; type: in vivo; conditions: 850 μg/kg s.c. 20 min before test
Method: FIG. 5. M6P reverses cognitive and motor deficits in AS mice. Experimental timelines are shown above graphs. In all experiments mice received a s.c. injection of either vehicle or 850 μg/Kg of M6P (IGF-2R.L1 or L1)(↑) 20 min before either training or testing. (A) Percent exploration preference for a novel object compared to a familiar object during the nOR paradigm of WT (Control) and Ube3a−/+(AS) mice injected with vehicle or IGF-2R.L1 20 min before training, and tested at 4 h and 24 h after training. N=4/group. Data are expressed as the mean±s.e.m. Two-way analysis of variance (ANOVA) followed by Bonferroni post-hoc tests. *P<0.05, **P<0.01, ***P<0.001. (B) Percent of correct alternations (% Correct) in a Y-maze of WT and AS mice injected with vehicle or M6P before testing (Test). Data are expressed as the mean (±s.e.m.). (C) Hindlimb clasping scores of WT and AS mice injected with vehicle or IGF-2R.L1, 20 min before Test. Hindlimb clasping scores are measured and expressed as following: If the hindlimbs are consistently splayed outward, away from the abdomen, it is assigned a score of 0. If one hindlimb is retracted toward the abdomen for more than 50% of the time suspended, it receives a score of 1. […]
(§1) FIG. 6. […] Data are expressed as the % mean±s.e.m. […]
L2 injection reversed motor deficits as measured by hindlimb clasping.

Ube3a−/+ (AS) mice [2] = assay: Novel object recognition (nOR) in AS mice; type: in vivo
Method: (§2) FIG. 1. IGF-2 reverses most behavioral deficits observed in a mouse model of AS. Experimental timelines are shown above graphs. In all experiments mice received a s.c. injection of either vehicle or IGF-2 (↑) 20 min before either training or testing. All data are expressed as the mean±s.e.m. N=8-12 per group. Two-way analysis of variance (ANOVA) followed by Bonferroni post-hoc tests. *P<0.05, **P<0.01, ***P<0.001. (A) Percentage of time spent freezing before (Pre-US) or after (Post-US) the shock delivery during contextual fear conditioning training and at testing at 24 hours (h) after training (Test) of normal mice (wild type, WT), which served as controls and Ube3a−/+ mice (mouse model of AS, also referred to as mice) injected with vehicle or IGF-2. (B) Percent exploration preference for a novel object compared to a familiar object during novel object recognition of WT and Ube3a−/+ mice injected with vehicle or IGF-2, 20 min before training, tested at 4 h and 24 h after training. (C) Percent of correct alternations (% Correct) in a Y-maze of WT and Ube3a−/+ mice injected with vehicle or IGF-2 before testing (Test). (D) Latency to fall off from a rotating rod by WT and Ube3a−/+ mice injected with vehicle or IGF-2, 20 min before Test, and tested again 3 and 7 days later. (E) Time spent burying marbles by WT and Ube3a−/+ mice injected with vehicle or IGF-2, 20 min before Test. (F) Time spent in the center of an open field by WT and Ube3a−/+ mice following a vehicle or IGF-2 injection given 20 min before Test. The bars for each set from left to right are: WT Vehicle, WT IGF-2, Ube3a−/+ Vehicle, and Ube3a−/+ IGF-2.
(§3) FIG. 5. M6P reverses cognitive and motor deficits in AS mice. Experimental timelines are shown above graphs. In all experiments mice received a s.c. injection of either vehicle or 850 μg/Kg of M6P (IGF-2R.L1 or L1)(↑) 20 min before either training or testing. (A) Percent exploration preference for a novel object compared to a familiar object during the nOR paradigm of WT (Control) and Ube3a−/+(AS) mice injected with vehicle or IGF-2R.L1 20 min before training, and tested at 4 h and 24 h after training. N=4/group. Data are expressed as the mean±s.e.m. Two-way analysis of variance (ANOVA) followed by Bonferroni post-hoc tests. *P<0.05, **P<0.01, ***P<0.001. (B) Percent of correct alternations (% Correct) in a Y-maze of WT and AS mice injected with vehicle or M6P before testing (Test). Data are expressed as the mean (±s.e.m.). (C) Hindlimb clasping scores of WT and AS mice injected with vehicle or IGF-2R.L1, 20 min before Test. Hindlimb clasping scores are measured and expressed as following: If the hindlimbs are consistently splayed outward, away from the abdomen, it is assigned a score of 0. If one hindlimb is retracted toward the abdomen for more than 50% of the time suspended, it receives a score of 1. If both hindlimbs are partially retracted toward the abdomen for more than 50% of the time suspended, it receives a score of 2. If its hindlimbs are entirely retracted and touching the abdomen for more than 50% of the time suspended, it receives a score of 3. Data are expressed in scores. B and C: N=8-14 per group. Two-way analysis of variance (ANOVA) followed by Tukey post-hoc tests. *P<0.05, **P<0.01, ***P<0.001.
FIG. 6. PnM6P reverses memory and motor deficits in AS mice. Experimental timelines are shown above graphs. In all experiments mice received a s.c. injection of either vehicle or 850 μg/Kg of phosphonate-M6P (PnM6P) called IGF-2R.L2 (or L2) (↑) 20 min before either training or testing. (A) Percent exploration preference for a novel object compared to a familiar object during the nOR paradigm of WT (Control) and Ube3a−/+ (AS) mice injected with vehicle or L2 before training, and tested at 4 h, 24 h and 5 days (5 d) after training. N=4/group. Data are expressed as the % mean±s.e.m. (B). […]

WT (Control) mice = assay: Novel object recognition (nOR) in WT mice; type: in vivo
Method: as §2, §3
FIG. 6. PnM6P reverses memory and motor deficits in AS mice. Experimental timelines are shown above graphs. […] Data are expressed as the % mean±s.e.m. […]

Ube3a−/+ (AS) mice [3] = assay: RotaRod test (accelerating rotating rod) in AS mice; type: in vivo; conditions: s.c. injection 20 min before test (L2 850 μg/kg)
Method: as §2, with “(D) Latency to fall off from a rotating rod by WT and Ube3a−/+ mice injected with vehicle or IGF-2, 20 min before Test, and tested again 3 and 7 days later. (E) Time spent burying marbles by WT and Ube3a−/+ mice injected with vehicle or IGF-2, 20 min before Test. (F) Time spent in the center of an open field by WT and Ube3a−/+ mice following a vehicle or IGF-2 injection given 20 min before Test. The bars for each set from left to right are: WT Vehicle, WT IGF-2, Ube3a−/+ Vehicle, and Ube3a−/+ IGF-2.” left out
as §1
AS is also associated with robust motor impairments, which again are reproduced in the AS mice. Motor coordination and ability is reliably assessed in mice by placing them on an accelerating rotating rod (RotaRod test). […]

IGF-2 receptor = IGF-2 receptor (Homo sapiens, UniProt P11717); conditions: cited from earlier work
Sequence of IGF-2 receptor (P11717 41-2491): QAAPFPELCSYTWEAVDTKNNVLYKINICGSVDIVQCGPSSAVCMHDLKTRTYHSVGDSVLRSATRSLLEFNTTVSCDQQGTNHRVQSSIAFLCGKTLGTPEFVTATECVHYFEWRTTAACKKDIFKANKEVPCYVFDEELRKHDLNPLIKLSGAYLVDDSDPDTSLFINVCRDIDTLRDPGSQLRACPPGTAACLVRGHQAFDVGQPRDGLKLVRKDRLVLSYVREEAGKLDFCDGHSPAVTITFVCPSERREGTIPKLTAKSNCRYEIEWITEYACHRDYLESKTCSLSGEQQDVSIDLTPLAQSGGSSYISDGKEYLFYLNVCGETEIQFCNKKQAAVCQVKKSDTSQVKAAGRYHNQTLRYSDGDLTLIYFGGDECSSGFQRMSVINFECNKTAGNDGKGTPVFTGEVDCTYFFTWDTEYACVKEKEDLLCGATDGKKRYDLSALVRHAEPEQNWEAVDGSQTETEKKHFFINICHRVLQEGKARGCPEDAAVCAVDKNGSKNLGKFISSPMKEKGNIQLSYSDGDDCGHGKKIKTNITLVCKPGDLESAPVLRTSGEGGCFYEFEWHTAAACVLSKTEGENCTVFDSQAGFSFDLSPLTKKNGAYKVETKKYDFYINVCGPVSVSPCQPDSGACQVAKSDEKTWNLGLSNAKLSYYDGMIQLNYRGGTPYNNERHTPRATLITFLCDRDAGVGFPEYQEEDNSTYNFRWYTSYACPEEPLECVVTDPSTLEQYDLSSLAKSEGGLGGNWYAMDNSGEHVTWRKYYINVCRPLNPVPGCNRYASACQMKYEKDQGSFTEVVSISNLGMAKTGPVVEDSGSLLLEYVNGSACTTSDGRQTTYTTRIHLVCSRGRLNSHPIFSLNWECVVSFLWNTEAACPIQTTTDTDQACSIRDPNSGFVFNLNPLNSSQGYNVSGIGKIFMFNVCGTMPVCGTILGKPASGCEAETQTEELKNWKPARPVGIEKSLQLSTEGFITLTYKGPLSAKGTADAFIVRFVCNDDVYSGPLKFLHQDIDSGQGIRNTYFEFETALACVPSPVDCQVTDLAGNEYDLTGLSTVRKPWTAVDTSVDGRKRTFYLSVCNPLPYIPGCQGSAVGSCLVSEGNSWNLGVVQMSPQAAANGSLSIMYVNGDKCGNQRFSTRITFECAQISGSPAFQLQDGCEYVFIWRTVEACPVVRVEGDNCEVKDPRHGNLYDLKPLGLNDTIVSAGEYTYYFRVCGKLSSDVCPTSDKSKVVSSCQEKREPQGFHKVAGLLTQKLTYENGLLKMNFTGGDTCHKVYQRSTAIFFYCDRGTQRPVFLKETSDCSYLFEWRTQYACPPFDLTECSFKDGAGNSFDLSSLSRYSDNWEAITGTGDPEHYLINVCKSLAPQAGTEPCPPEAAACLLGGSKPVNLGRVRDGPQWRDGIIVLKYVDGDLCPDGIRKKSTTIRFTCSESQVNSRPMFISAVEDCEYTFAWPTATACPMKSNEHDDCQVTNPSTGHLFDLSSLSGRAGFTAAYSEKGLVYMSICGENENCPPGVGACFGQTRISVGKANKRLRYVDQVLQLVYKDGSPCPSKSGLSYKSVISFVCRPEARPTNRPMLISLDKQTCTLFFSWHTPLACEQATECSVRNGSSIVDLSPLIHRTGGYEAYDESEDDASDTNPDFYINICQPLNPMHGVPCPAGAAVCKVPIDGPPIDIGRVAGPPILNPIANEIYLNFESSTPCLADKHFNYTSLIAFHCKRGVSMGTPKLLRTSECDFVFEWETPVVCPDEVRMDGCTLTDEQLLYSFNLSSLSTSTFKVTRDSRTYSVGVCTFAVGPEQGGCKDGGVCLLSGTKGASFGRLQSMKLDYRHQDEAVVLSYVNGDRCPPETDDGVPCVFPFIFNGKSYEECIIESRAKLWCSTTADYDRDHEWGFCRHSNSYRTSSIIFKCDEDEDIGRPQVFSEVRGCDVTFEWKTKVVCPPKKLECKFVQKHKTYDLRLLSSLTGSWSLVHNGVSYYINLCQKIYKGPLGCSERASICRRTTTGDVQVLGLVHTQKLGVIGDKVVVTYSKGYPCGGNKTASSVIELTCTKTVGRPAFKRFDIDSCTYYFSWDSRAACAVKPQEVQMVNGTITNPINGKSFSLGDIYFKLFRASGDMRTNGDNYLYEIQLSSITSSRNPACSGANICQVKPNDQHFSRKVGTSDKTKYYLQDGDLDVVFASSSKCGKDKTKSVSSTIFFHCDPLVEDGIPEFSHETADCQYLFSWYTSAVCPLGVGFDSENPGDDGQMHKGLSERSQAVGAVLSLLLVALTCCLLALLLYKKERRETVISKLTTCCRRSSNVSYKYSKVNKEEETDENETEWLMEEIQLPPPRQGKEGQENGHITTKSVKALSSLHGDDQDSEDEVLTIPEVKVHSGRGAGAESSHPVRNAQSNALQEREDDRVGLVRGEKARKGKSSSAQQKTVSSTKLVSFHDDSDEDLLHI

Ube3a−/+ (AS) mice [4] = assay: Spontaneous alternation in three-arm Y-maze in AS mice; type: in vivo; conditions: s.c. injection 20 min before test (M6P 850 μg/kg)
Method: as §2, with “(D) Latency to fall off from a rotating rod by WT and Ube3a−/+ mice injected with vehicle or IGF-2, 20 min before Test, and tested again 3 and 7 days later. (E) Time spent burying marbles by WT and Ube3a−/+ mice injected with vehicle or IGF-2, 20 min before Test. (F) Time spent in the center of an open field by WT and Ube3a−/+ mice following a vehicle or IGF-2 injection given 20 min before Test. The bars for each set from left to right are: WT Vehicle, WT IGF-2, Ube3a−/+ Vehicle, and Ube3a−/+ IGF-2.” left out
FIG. 5. […] Data are expressed as the mean±s.e.m. […] Data are expressed as the mean (±s.e.m.). […] Hindlimb clasping scores are measured and expressed as following: If the hindlimbs are consistently splayed outward, away from the abdomen, it is assigned a score of 0. […]

Ube3a−/+ (AS) mice [5] = assay: Open field (center entry, anxiety-like behavior) in AS mice; type: in vivo; conditions: s.c. injection 20 min before test
Method: as §2, with “(D) Latency to fall off from a rotating rod by WT and Ube3a−/+ mice injected with vehicle or IGF-2, 20 min before Test, and tested again 3 and 7 days later. (E) Time spent burying marbles by WT and Ube3a−/+ mice injected with vehicle or IGF-2, 20 min before Test. (F) Time spent in the center of an open field by WT and Ube3a−/+ mice following a vehicle or IGF-2 injection given 20 min before Test. The bars for each set from left to right are: WT Vehicle, WT IGF-2, Ube3a−/+ Vehicle, and Ube3a−/+ IGF-2.” left out
To measure the effect of IGF-2 on anxiety-like behavior we employed open field and measured center entry (which measures anxiety behavior): No effect of IGF-2 treatment was found on AS mice, which remained altered compared to the behavior of normal mice (FIG. 1F).

[6] = tested on: Ube3a−/+ mice (mouse model of AS); assay: Contextual fear conditioning (CFC) in AS mice; type: in vivo; conditions: s.c. injection 20 min before training, test 24 h after training
Method: FIG. 1. IGF-2 reverses most behavioral deficits observed in a mouse model of AS. Experimental timelines are shown above graphs. In all experiments mice received a s.c. injection of either vehicle or IGF-2 (↑) 20 min before either training or testing. All data are expressed as the mean±s.e.m. N=8-12 per group. Two-way analysis of variance (ANOVA) followed by Bonferroni post-hoc tests. *P<0.05, **P<0.01, ***P<0.001. (A) Percentage of time spent freezing before (Pre-US) or after (Post-US) the shock delivery during contextual fear conditioning training and at testing at 24 hours (h) after training (Test) of normal mice (wild type, WT), which served as controls and Ube3a−/+ mice (mouse model of AS, also referred to as mice) injected with vehicle or IGF-2. (B) Percent exploration preference for a novel object compared to a familiar object during novel object recognition of WT and Ube3a−/+ mice injected with vehicle or IGF-2, 20 min before training, tested at 4 h and 24 h after training. […]
As measures of learning/cognitive responses, which are known to be altered in Angelman Syndrome (AS), we tested different types of aversive and non-aversive memories. […] We tested memory retention one day later (a time that is used to measure long-term memory) by placing mice back in the same chamber and measured their fear-related (freezing) behavior.

Ube3a−/+ (AS) mice [7] = assay: Marble-burying test in AS mice; type: in vivo; conditions: s.c. injection 20 min before test
Method: as §2, with “(F) Time spent in the center of an open field by WT and Ube3a−/+ mice following a vehicle or IGF-2 injection given 20 min before Test. The bars for each set from left to right are: WT Vehicle, WT IGF-2, Ube3a−/+ Vehicle, and Ube3a−/+ IGF-2.” left out

[8] = L2 850 μg/kg s.c. before training, 5 d test
[9] = s.c. injection 20 min before training (M6P and L2 850 μg/kg), test 4 h after training
[10] = s.c. injection 20 min before training (M6P and L2 850 μg/kg), test 24 h after training

Compound	Hindlimb clasping score (motor deficit) (Ube3a−/+ (AS) mice [1])	Exploration preference for novel object (nOR memory) (Ube3a−/+ (AS) mice [2]; [8])	Exploration preference for novel object (nOR memory) (Ube3a−/+ (AS) mice [2]; [9])	Exploration preference for novel object (nOR memory) (Ube3a−/+ (AS) mice [2]; [10])	Exploration preference for novel object (nOR memory) (WT (Control) mice; [8])	Exploration preference for novel object (nOR memory) (WT (Control) mice; s.c. injection 20 min before training (L2 850 μg/kg), test 4 h after training)	Exploration preference for novel object (nOR memory) (WT (Control) mice; [10])	Latency to fall off rotating rod (motor ability) (Ube3a−/+ (AS) mice [3])	Kd (IGF-2 receptor; one of the two known binding sites, Olson et al., J. Biol. Chem. 2004, read-out: Affinity for IGF-2 receptor) [nM]	Kd (IGF-2 receptor; other of the two known binding sites, Olson et al., J. Biol. Chem. 2004, read-out: Affinity for IGF-2 receptor) [nM]	Correct alternations in Y-maze (exploratory strategy/working memory) (Ube3a−/+ (AS) mice [4])	Open field center entry (anxiety-like behavior) (Ube3a−/+ (AS) mice [5])	Freezing (long-term memory retention) in contextual fear conditioning [6]	Marble burying (time spent burying) (Ube3a−/+ (AS) mice [7])	Kd (IGF-2 receptor; Williams et al., Science 2012, read-out: Kd for IGF-2 receptor) [nM]
COC1OC(CCP(=O)(OCOC(=O)OC(C)C)OCOC(=O)OC(C)C)C(O)C(O)C1O [L2, Methyl 6-Deoxy-6-diisopropyloxycarbonyloxy-methyl-phosphinylmethyl-α-D-mannopyranoside]	returned their hindlimb clasping behavior to control levels	none of the groups (vehicle or L2 injected) showed significant memory	significantly reversed the deficit of AS mice in nOR	showed significant memory compared to vehicle-injected groups	none of the groups (vehicle or L2 injected) showed significant memory	significantly enhanced nOR memory retention in WT mice	showed significant memory compared to vehicle-injected groups	significantly improved their motor ability on the RotaRod							
O=P(O)(O)OCC1OC(O)C(O)C(O)C1O (stereo not drawn) [M6P, mannose-6-phosphate]	significantly reduced hind limb clasping		reversed memory deficits in AS mice	significant memory retention			significant memory retention		~1	~1000	completely reversed the deficit				
IGF-2: insulin-like growth factor 2 (IGF-2 or IGF-II), IGF-2 receptor agonist ligand			completely reversed the memory deficits of AS mice	significant preference for a novel object			significant preference for a novel object	significant improvement in motor ability			reverses the repetitive, inflexible behavior	No effect	completely reversed the memory impairment of AS mice	rescued the deficits of the AS mice	40 to 60
